According to patent publication EP4268810A1 (priority 2022, dated 2023):
Read-outs that look alike come from different tables or passages of the source.

Experiments:
[1] = tested on: SARS-CoV-2 clinical omicron isolate
[2] = tested on: SARS-CoV-2 clinical omicron isolate; assay: microbe, parasite or virus in culture; conditions: Severe acute respiratory syndrome coronavirus 2, Calu-3

Row | SMILES | Therapeutic range: CC50/IC50, CTG ([1]; human, calu-3 cells) | Therapeutic range: CC50/IC50, IncuCyte ([1]; human, calu-3 cells) | Therapeutic range: CC50/IC50, MTT ([1]; human, calu-3 cells) | IC50 [2] | Therapeutic range: CC50/IC50, CTG ([1]; SARS-CoV-2 omicron in Calu-3 cells, CC50 by CTG) | Therapeutic range: CC50/IC50, IncuCyte ([1]; SARS-CoV-2 omicron in Calu-3 cells, CC50 by IncuCyte) | Therapeutic range: CC50/IC50, MTT ([1]; SARS-CoV-2 omicron in Calu-3 cells, CC50 by MTT)
1 | [H]/N=C(/N)N/C(=N/[H])NCCc1ccccc1 [Phenformin, phenformin] | CTG: 1674 | IncuCyte: 1111 | MTT: 1123 | 1.35 µM | – | – | –
2 | COc1[nH]c(=O)c(C(=O)C(C)CC(C)C(Cl)CCl)c(O)c1OC (centres unmarked) [Atpenin A5] | – | – | – | 0.68 µM | CTG: 1.3 | IncuCyte: > 117.6 | MTT: 1.8
